What was measured:
EGF receptor = EGF receptor (Homo sapiens, UniProt P00533); details: read-out: Potency, IC50, EGF receptor; cited from earlier work
[1] = tested on: differentiated P19 neurons; assay: Differentiated P19 excitotoxicity assay: neuroprotection by known kinase inhibitors against glutamate/glycine (Alamar Blue, CFDA); assay type: cell-based, murine; details: for Maximal Efficacy for Neuroprotection / IC50: 3 mM glutamate, 1 mM glycine; for IC50: mean of three separate curves, read-out: IC50 for Neuroprotection [lower-upper 95% C.I.]
Procedure: Data points are the average±standard error of three separate experiments.
These cells were used to measure the effects of various known kinase inhibitors (Compound Identification (ID) column in Table I) upon cytotoxicity-induced by NMDA. First, P19 cells were differentiated as described in Example 2. Then cells were exposed to 3 mM of glutamate in the presence of 1 mM glycine.
Cell viability was determined. Compounds that prevented excitotoxicity were determined by measuring the percentage of viable cells compared to differentiated P19 cells that were not presented with a toxic insult (Table I).
Cell viability was measured using two methods. The first method was a confocal, single-cell fluorescence imaging-based method using the live cell dye carboxy-fluorescein diacetate (CFDA). CFDA labels the cell bodies and processes of living cells. […] CFDA fluorescence was measured using a modified Attofluor Imager device (Atto Instruments, Rockville Pike, Md.). Cells were labeled with 1 uM CFDA for 15 min in media, then placed onto the stage of the Attofluor microscope. The dye was excited by light from a mercury lamp source passed through a 488 nm bandpass filter of 10 nm band width, passed through a CARV real-time confocal spinning disk module (Atto Instruments, Rockville, Md.), and then passed through a 40×oil immersion objective (Zeiss Fluar, NA=1.3). Emitted light was transmitted through a 495 nm dichroic mirror, collected to an Attofluor intensified CCD camera, and images were visualized using Attofluor Ratio Vision software (Atto Instruments, Rockville, Md.).
The second method for measuring cell viability was a plate reader method. Cells plated into black 96 well plates (Packard viewplates) were loaded with 5% Alamar Blue dye (Biosource International). Alamar Blue is a dye that takes advantage of mitochondrial reductases to convert non-fluorescent resazurin to fluorescent resorufin (excitation 535 nm, emission 580 nm). Baseline fluorescence counts were read at room temperature in a Wallac plate reader immediately after addition of Alamar blue. Fluorescence counts of cell viability were taken the same way after 1 hour incubation at 37° C. Fluorescence was expressed as a percent of control, untreated cells after subtraction of background fluorescence. Live/dead cells were confirmed visually with a light microscope.
Kinase inhibition activities and potencies were derived from the literature (Chijiwa et al. 1990; Favata et al. 1998; Henry et al. 1998; Inhorn and Majerus 1987; Kobayashi et al. 1989; Lee et al. 1994; Onoda et al. 1989; Tokumitsu et al. 1990). […] Curves were fit, and confidence intervals were determined using GraphPad Prism software.

p60^c-src = p60^c-src (Homo sapiens, UniProt P12931); details: read-out: Potency, IC50, p60^c-src; cited from earlier work
Chain of p60^c-src (P12931 whole entry): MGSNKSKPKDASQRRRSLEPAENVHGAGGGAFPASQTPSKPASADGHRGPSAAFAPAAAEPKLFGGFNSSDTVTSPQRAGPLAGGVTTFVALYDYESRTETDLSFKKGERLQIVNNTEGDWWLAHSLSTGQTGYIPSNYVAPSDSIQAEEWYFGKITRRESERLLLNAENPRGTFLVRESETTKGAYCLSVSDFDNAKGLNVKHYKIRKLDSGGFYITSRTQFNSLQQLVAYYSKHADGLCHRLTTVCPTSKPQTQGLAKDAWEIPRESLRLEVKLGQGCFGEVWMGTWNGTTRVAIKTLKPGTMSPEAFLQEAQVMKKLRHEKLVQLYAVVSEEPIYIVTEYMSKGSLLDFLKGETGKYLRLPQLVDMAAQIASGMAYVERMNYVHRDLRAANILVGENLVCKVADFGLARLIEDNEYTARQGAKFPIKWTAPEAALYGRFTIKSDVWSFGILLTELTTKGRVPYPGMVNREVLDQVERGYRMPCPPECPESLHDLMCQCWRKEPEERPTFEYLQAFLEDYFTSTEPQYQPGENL

P19 neurons = assay: Post-treatment time course of neuroprotection in P19 neurons (delayed neuroprotection); assay type: cell-based, murine; details: compound added after glutamate challenge
Description: Time-course of efficacy is an extremely relevant parameter for a potential neuroprotective therapeutic agent, since the therapeutic would need to be administered hours to days after an ischemic event and still retain efficacy.

PKA = PKA (Homo sapiens, UniProt P17612); details: read-out: Potency, IC50, PKA; cited from earlier work
PKC = details: read-out: Potency, IC50, PKC; cited from earlier work
PKG = target: T1, PKG (Homo sapiens, UniProt Q13976); details: read-out: Potency, IC50, PKG; cited from earlier work
T1 sequence (Q13976 1-671): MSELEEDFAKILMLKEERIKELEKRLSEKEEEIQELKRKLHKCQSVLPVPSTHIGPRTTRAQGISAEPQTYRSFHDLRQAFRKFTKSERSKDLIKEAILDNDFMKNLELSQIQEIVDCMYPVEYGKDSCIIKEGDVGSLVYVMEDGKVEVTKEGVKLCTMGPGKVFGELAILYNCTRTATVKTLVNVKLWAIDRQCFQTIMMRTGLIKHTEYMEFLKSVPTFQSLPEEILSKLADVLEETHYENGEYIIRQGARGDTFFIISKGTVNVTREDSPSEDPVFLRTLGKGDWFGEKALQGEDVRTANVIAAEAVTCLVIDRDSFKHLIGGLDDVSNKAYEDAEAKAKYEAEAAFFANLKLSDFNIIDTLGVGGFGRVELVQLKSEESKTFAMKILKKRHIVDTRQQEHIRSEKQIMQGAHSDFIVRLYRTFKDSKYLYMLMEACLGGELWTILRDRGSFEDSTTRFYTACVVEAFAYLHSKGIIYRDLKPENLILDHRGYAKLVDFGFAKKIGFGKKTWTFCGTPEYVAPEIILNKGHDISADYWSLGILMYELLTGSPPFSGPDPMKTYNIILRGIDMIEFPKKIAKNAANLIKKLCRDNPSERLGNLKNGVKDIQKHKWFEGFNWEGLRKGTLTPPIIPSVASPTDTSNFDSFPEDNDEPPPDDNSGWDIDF

NMDA receptor = NMDA receptor (Mus musculus, UniProt P35436+P35438+Q01097); details: P19 membranes, concentration-dependent
Chain of NMDA receptor (P35436 23-1464, other chains not shown): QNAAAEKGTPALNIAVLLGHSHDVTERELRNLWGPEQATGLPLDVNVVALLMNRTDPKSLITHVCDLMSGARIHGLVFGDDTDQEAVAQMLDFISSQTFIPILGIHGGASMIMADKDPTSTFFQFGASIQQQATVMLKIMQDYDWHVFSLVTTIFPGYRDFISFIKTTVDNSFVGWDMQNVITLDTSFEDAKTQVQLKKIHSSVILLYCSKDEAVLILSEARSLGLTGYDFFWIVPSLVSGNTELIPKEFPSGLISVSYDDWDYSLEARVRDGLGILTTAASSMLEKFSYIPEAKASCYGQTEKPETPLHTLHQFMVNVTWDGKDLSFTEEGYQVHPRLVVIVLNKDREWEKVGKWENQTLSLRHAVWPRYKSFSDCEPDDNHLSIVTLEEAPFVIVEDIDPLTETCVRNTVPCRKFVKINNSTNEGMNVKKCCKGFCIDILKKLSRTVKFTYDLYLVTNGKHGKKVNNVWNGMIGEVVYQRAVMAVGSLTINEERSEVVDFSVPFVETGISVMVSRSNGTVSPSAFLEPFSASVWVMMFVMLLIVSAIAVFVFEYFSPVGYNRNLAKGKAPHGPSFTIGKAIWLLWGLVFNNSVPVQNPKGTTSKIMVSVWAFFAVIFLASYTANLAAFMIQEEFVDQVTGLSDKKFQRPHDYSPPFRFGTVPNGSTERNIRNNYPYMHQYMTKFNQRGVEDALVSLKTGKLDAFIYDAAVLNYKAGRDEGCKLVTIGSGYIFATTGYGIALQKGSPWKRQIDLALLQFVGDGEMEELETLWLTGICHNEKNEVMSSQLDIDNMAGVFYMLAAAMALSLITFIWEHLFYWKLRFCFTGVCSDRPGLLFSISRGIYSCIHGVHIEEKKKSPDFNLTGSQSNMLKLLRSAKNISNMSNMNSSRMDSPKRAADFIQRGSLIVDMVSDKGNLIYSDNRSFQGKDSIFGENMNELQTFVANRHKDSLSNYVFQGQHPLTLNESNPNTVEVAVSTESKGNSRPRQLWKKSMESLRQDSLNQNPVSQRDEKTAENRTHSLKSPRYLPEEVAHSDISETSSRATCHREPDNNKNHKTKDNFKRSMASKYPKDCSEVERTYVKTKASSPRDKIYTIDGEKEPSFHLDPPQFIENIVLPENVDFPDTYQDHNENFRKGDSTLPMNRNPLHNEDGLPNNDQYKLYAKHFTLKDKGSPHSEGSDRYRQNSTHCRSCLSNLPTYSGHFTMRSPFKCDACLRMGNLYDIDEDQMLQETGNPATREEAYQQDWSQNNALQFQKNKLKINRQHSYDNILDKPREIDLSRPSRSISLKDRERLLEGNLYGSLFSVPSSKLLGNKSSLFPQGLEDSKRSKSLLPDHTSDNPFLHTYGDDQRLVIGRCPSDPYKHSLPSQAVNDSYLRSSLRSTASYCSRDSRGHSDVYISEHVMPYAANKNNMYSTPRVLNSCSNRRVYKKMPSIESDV
Chain of NMDA receptor (Q01097 27-1482, other chains not shown): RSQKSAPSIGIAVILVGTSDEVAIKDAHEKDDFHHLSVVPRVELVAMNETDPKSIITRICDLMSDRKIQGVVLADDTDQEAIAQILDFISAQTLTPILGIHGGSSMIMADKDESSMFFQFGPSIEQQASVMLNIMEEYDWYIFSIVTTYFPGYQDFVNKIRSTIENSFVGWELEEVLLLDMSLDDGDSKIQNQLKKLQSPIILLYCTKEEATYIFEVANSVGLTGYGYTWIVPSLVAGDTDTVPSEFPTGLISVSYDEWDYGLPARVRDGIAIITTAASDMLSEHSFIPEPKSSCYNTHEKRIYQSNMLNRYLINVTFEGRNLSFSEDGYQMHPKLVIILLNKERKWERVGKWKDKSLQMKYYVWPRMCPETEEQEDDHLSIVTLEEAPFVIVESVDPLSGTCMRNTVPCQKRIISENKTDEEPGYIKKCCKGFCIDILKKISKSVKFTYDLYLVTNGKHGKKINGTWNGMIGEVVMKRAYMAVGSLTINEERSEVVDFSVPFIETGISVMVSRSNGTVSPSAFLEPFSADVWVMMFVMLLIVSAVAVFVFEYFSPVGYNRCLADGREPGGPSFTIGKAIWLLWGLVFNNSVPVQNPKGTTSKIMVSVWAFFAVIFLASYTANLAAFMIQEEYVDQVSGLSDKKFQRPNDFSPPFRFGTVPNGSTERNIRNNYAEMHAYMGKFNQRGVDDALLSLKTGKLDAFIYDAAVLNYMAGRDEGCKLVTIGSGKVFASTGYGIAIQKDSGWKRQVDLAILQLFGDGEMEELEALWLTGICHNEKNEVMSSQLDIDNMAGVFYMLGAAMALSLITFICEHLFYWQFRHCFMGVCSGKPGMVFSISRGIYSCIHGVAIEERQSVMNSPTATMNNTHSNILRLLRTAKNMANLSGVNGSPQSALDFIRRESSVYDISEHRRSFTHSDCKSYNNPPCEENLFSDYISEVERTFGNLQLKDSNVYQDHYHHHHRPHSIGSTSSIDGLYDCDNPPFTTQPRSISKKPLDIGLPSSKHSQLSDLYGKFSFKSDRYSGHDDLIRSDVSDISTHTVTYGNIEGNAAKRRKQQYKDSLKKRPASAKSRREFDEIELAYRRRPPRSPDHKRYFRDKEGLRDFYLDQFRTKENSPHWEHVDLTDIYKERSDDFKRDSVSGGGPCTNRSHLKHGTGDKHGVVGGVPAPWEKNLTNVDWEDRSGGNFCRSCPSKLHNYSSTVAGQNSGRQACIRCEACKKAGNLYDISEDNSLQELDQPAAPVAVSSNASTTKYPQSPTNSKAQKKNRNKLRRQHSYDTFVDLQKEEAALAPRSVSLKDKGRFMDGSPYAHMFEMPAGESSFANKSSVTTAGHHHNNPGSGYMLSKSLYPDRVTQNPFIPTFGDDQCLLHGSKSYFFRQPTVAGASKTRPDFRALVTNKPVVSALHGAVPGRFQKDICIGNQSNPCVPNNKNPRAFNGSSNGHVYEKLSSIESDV
Procedure: MK-801 inhibition of [^3H]-MK-801 binding was assayed in P19 membranes. MK-801 concentrations are expressed as 10^−x Molar. Data points represent the mean±standard error from eight experiments. % control=((CPM−CPMbottom)/(CPMtop−CPMbottom))×100.

Male Wistar rats = assay: Transient model of cerebral ischemia in rats (lesion volume); assay type: in vivo, rat; details: 3 mg/kg, i.p., 1 hr post ischemia onset; 24 h; average of 12
Procedure: Male Wistar rats (Iffa Crédo, France), weighing 250-300 g, were housed 2 per cage under a light-dark cycle of 12 hr-12 hr (light on at 7:00 a.m., off at 7:00 p.m.) at a room temperature of 21±2° C., with 50±15% humidity, for a minimum of 5 days before the experiments. During this time, the rats had free access to commercial rat chow (Trouw Nutrition France, Vigny, France, ref. 811002) and tap water.
The animals were anaesthetized with 5% halothane in air for induction, then 1-2% halothane during surgery. The rat's body temperature was maintained at 37° C. with a heating pad. A 2 cm incision was made at the center of the neck and the right common carotid artery (CCA), external carotid artery (ECA) and internal carotid artery (ICA) were exposed under an operating microscope. The ICA was further dissected to identify the pterygopalatine artery (PA) branch and the intracranial ICA branch. The CCA was ligated. A 3-0 silk suture was tied at the origin of the ECA and ligated. A catheter (id=0.58 mm) was introduced into the CCA through a small puncture and advanced to the intracranial branch of the ICA. A 4-0 surgical nylon suture was introduced into the catheter. A length of approximately 19 mm of nylon suture was gently advanced from the CCA into the lumen of the ICA until the suture blocked the origin of the MCA. The suture was sealed into the catheter by heat, leaving 1 cm of catheter protruding so the suture could be withdrawn to allow reperfusion. The incision was closed using skin clips. Anaesthesia was then terminated and the animals were placed under heat lamps until recovery from anaesthesia. The rats awakened 10-15 min later. After 2 hr of ischemia, reperfusion was performed by withdrawal of the suture until the tip cleared the ICA lumen. Vehicle or test compound was administered intraperitoneally (i.p.) or intravenously (i.v.) at 1 hr post ischemia onset.
24 h after the onset of occlusion, the rats were killed by decapitation. The brains were immediately removed, frozen in isopentane and stored at −20° C. The brains were then cut in 20 μm thick sections in a cryocut. Every 20th slice was used to measure infarct area. The sections were stained with cresyl violet and the areas of infarct in the striatum and cortex were determined by planimetry using an image analysis software (Image, NIH) after digitalization of the section images.
Following the procedure described above, MK-801, compound #46 and compound #264 (as listed in the Tables herein) were evaluated for neuroprotective effects in rats with results as listed in Table VIII. The data represent average lesion volume in mm^3 for 12 measurements. Vehicle used was 15% solutol in 5% dextrose.

[2] = tested on: NMDA receptor-mediated intracellular calcium response; assay: Fura-2 imaging of glutamate/glycine-induced intracellular calcium response in P19 neurons; assay type: cell-based, murine; details: 100 μM MK-801, 24 hours prior to assay; 3 mM glutamate, 1 mM glycine
Procedure: MK-801 was administered 24 hours prior to assay. […] MK-801 concentrations are expressed as 10^−x Molar. […] (FIG. 1B).
U0126 was administered concurrently with glutamate and glycine.

Chain of EGF receptor (P00533 25-1210): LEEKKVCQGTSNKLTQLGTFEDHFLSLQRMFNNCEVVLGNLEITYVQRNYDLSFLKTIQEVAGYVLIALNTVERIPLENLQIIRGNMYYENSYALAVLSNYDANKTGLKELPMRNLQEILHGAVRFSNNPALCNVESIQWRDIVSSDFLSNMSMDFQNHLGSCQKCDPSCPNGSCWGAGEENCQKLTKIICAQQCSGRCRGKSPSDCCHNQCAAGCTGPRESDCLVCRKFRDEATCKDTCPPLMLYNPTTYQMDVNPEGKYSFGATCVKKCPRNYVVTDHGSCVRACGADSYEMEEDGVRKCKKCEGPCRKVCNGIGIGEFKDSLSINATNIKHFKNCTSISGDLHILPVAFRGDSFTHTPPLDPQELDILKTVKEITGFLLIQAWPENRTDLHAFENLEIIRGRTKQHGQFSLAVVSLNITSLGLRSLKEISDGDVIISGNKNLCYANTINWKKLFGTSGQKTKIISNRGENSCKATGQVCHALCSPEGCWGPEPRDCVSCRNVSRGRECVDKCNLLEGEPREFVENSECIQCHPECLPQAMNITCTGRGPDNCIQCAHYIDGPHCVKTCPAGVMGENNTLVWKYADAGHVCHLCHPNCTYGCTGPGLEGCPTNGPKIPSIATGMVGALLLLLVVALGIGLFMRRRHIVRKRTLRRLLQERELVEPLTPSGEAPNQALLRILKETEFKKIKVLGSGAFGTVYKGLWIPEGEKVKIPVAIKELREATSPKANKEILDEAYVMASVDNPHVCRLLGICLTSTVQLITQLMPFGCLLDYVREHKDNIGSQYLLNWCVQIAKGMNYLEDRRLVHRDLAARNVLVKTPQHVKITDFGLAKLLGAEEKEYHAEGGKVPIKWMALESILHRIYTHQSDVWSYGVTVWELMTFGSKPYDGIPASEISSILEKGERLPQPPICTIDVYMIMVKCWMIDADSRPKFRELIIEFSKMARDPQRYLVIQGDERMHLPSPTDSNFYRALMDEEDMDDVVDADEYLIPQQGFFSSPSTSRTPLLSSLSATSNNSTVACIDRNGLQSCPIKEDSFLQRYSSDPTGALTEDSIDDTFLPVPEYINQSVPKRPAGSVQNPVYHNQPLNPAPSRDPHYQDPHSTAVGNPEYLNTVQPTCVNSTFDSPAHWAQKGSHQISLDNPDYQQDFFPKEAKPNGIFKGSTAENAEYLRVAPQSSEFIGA

## O=C(O)c1cc(N(Cc2ccccc2O)Cc2cc(O)ccc2O)ccc1O [Lavendustin A]
EGF receptor
  IC50: ~11 nM
[1]
  Maximal Efficacy for Neuroprotection: <25%
  IC50: > 10000 nM
p60^c-src
  IC50: ~500 nM

## COc1cc(N)nc2[nH]c(-c3ccc(F)cc3)c(-c3ccncc3)c12 [Compound A]
P19 neurons
  time after glutamate challenge at which efficacy was lost: 15 min

## COc1c(C[C@@H](C)OC(=O)Oc2ccc(O)cc2)c2c3c(C[C@@H](C)OC(=O)c4ccccc4)c(OC)c(=O)c4c(O)cc(OC)c(c5c(OC)cc(O)c(c1=O)c52)c43 [Calphostin C]
PKA
  IC50: > 50000 nM
PKC
  IC50: ~50 nM
[1]
  Maximal Efficacy for Neuroprotection: ˜50%
  IC50: > 1000 nM
PKG
  IC50: > 25000 nM
p60^c-src
  IC50: > 50000 nM

## C[C@]12N[C@H](Cc3ccccc31)c1ccccc12 [MK-801, reference compound]
NMDA receptor
  inhibition of [3H]-MK-801 binding achieved: 100%
Male Wistar rats
  Cortex + Striatum Vol. (mm^3): 205.4 ± 28.0 mm^3
  Cortex Vol. (mm^3): 135.0 ± 26.1 mm^3
  Striatum Vol. (mm^3): 70.4 ± 2.9 mm^3
[1]; 3 mM glutamate and 1 mM glycine
  Maximal protection against glutamate toxicity: close to control levels
[2]
  effect on intracellular calcium response to NMDA receptor agonists: significantly inhibited this response

Reference: patent US20040006094A1, “4-pyrimidinamine derivatives, pharmaceutical compositions and related methods” (priority 2000, published 2004)
